This note sets out measurements from PubChem BioAssay AID330 (DTP/NCI, 2004).

Values joined by “and” are separate entries in the source; they are usually repeats but may differ in a detail not shown here. Equal entries are not always repeated. Toxic doses and inconclusive results are not listed.

The test system of the experiment is P388 leukemia ip, CD2F1 mice, survival T/C. Kind of experiment: NCI In Vivo Anticancer Drug Screen. Data for tumor model P388 Leukemia (intraperitoneal) in CD2F1 (CDF1) mice. The note with it: endpoint: median survival time, higher = longer survival. In a few lines: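 Mice carrying the transplanted tumor received test compound or vehicle. Survival was recorded in each group, and the value is the treated-group measurement divided by that of the vehicle-treated control group.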

The mark [1] stands for this setting: dose: 50.0 mg/kg/injection, schedule: Q01DX005 (ip), vehicle: Klucel (hydroxypropylcellulose) (HPC).
[2] abbreviates: dose: 100.0 mg/kg/injection, schedule: Q01DX005 (ip), vehicle: Klucel (hydroxypropylcellulose) (HPC).
Where [3] appears, read: dose: 50.0 mg/kg/injection, schedule: Q01DX009 (ip), vehicle: saline with Tween-80.
The mark [4] stands for this setting: dose: 100.0 mg/kg/injection, schedule: Q01DX009 (ip), vehicle: saline with Tween-80.
Where [5] appears, read: dose: 200.0 mg/kg/injection, schedule: Q01DX009 (ip), vehicle: saline with Tween-80.
[6] abbreviates: dose: 200.0 mg/kg/injection, schedule: Q01DX005 (ip), vehicle: Klucel (hydroxypropylcellulose) (HPC).

Turning to `Cc1coc2c1CC1OC1(C)CCC1OC1(C)C2` (stereo unspecified), the T/C runs as follows: (dose: 12.5 mg/kg/injection, schedule: Q01DX005 (ip), vehicle: Klucel + Tween-80) 96 % of control; (dose: 25.0 mg/kg/injection, schedule: Q01DX005 (ip), vehicle: Klucel + Tween-80) 98 % of control; (dose: 50.0 mg/kg/injection, schedule: Q01DX005 (ip), vehicle: Klucel + Tween-80) 99 % of control; (dose: 100.0 mg/kg/injection, schedule: Q01DX005 (ip), vehicle: Klucel + Tween-80) 106 % of control.

For `O=C(O)CN=C1C=CC(=NCC(=O)O)C=C1`, the T/C was 109 % of control under setting [1] and 108 % of control under setting [2].

As to `CCOC(=O)CSc1cc(O)c2ccccc2c1N=Nc1ccc(C(=O)OCC)cc1`, the T/C reads like this: (dose: 50.0 mg/kg/injection, schedule: Q01DX005 (ip), vehicle: saline with Tween-80) 104 % of control; (dose: 100.0 mg/kg/injection, schedule: Q01DX005 (ip), vehicle: saline with Tween-80) 110 % of control; (dose: 200.0 mg/kg/injection, schedule: Q01DX005 (ip), vehicle: saline with Tween-80) 114 % of control.

On to `Cc1ccc(NC(=S)SCc2ccc([N+](=O)[O-])cc2)cc1C`, for which the T/C reads like this: (dose: 50.0 mg/kg/injection, schedule: Q01DX009 (ip), vehicle: suspension in saline) 89 % of control; (dose: 100.0 mg/kg/injection, schedule: Q01DX009 (ip), vehicle: suspension in saline) 107 % of control; (dose: 200.0 mg/kg/injection, schedule: Q01DX009 (ip), vehicle: suspension in saline) 101 % of control.

Take `CC(=O)Nc1ccc(C(=O)C(C)=O)cc1`: the T/C was 100 % of control under setting [3], 104 % of control under setting [4] and 97 % of control under setting [5].

Regarding `O=C1Cc2ccccc2C2CC12` (stereo unspecified), the T/C is, setting by setting: (dose: 100.0 mg/kg/injection, schedule: Q01DX001 (ip), vehicle: Klucel (hydroxypropylcellulose) (HPC)) 98 % of control; (dose: 200.0 mg/kg/injection, schedule: Q01DX001 (ip), vehicle: Klucel (hydroxypropylcellulose) (HPC)) 113 % of control; (dose: 400.0 mg/kg/injection, schedule: Q01DX001 (ip), vehicle: Klucel (hydroxypropylcellulose) (HPC)) 111 % of control.

On to `CCC(NN)C(=O)OCc1ccccc1` (stereo unspecified), for which the T/C reads like this: under setting [1], 97 % of control; under setting [2], 95 % of control; under setting [6], 103 % of control.

As for `COC(=O)c1nc(=S)[nH]c(C(=O)OC)c1C(=O)c1cccc(O)c1`, the T/C was 95 % of control (dose: 60.0 mg/kg/injection, schedule: Q01DX005 (ip), vehicle: suspension in saline) and 90 % of control (dose: 120.0 mg/kg/injection, schedule: Q01DX005 (ip), vehicle: suspension in saline).

For `COC1C(O[C@@H]2c3c(cc4c(c3O)C(=O)c3c(O)cccc3C4=O)C(=O)C(C)(O)C2OC)OC(C)C(O)C1O` (stereo partly specified), the T/C runs as follows: (dose: 6.25 mg/kg/injection, schedule: Q04DX003 (ip), vehicle: Klucel (hydroxypropylcellulose) (HPC)) 102 % of control; (dose: 12.5 mg/kg/injection, schedule: Q04DX003 (ip), vehicle: Klucel (hydroxypropylcellulose) (HPC)) 101 % of control; (dose: 25.0 mg/kg/injection, schedule: Q04DX003 (ip), vehicle: Klucel (hydroxypropylcellulose) (HPC)) 106 % of control; (dose: 50.0 mg/kg/injection, schedule: Q04DX003 (ip), vehicle: Klucel (hydroxypropylcellulose) (HPC)) 101 % of control and 104 % of control; (dose: 100.0 mg/kg/injection, schedule: Q04DX003 (ip), vehicle: Klucel (hydroxypropylcellulose) (HPC)) 104 % of control; (dose: 200.0 mg/kg/injection, schedule: Q04DX003 (ip), vehicle: Klucel (hydroxypropylcellulose) (HPC)) 121 % of control.

Regarding `CN(C)c1ccc(/C=C2\SC(=S)N(CCCN3CCOCC3)C2=O)cc1`, the T/C runs as follows: under setting [3], 91 % of control; under setting [4], 90 % of control; under setting [5], 87 % of control.

For the compound `C[Si](C)(C)OC=C1CCCCC1`, the T/C reads like this: (dose: 50.0 mg/kg/injection, schedule: Q01DX009 (ip), vehicle: olive oil, sesame oil, peanut oil) 113 % of control; (dose: 100.0 mg/kg/injection, schedule: Q01DX009 (ip), vehicle: olive oil, sesame oil, peanut oil) 122 % of control; (dose: 200.0 mg/kg/injection, schedule: Q01DX009 (ip), vehicle: olive oil, sesame oil, peanut oil) 108 % of control.

Regarding `c1ccc(Cc2cccc[n+]2C(c2ccccc2)c2ccccc2)cc1`, the T/C reads like this: (dose: 6.25 mg/kg/injection, schedule: Q01DX009 (ip), vehicle: Klucel (hydroxypropylcellulose) (HPC)) 105 % of control; (dose: 12.5 mg/kg/injection, schedule: Q01DX009 (ip), vehicle: Klucel (hydroxypropylcellulose) (HPC)) 87 % of control.

`COc1cccc([B-]23OCC[N+]2(CNC(=O)C2=C(O)C4(O)C(=O)C5=C(O)c6c(O)cccc6C(C)(O)C5CC4C(N(C)C)C2=O)CCO3)c1` (stereo unspecified): the T/C under setting [1] was 110 % of control, the T/C under setting [2] was 105 % of control and the T/C under setting [6] was 115 % of control.

For the compound `COc1ccccc1C1NC(c2ccccc2OC)C2CCCC1C2` (stereo unspecified), the T/C (dose: 100.0 mg/kg/injection, schedule: Q04DX003 (ip), vehicle: saline) was 91 % of control; the T/C (dose: 200.0 mg/kg/injection, schedule: Q04DX003 (ip), vehicle: saline) was 90 % of control; the T/C (dose: 400.0 mg/kg/injection, schedule: Q04DX003 (ip), vehicle: saline) was 88 % of control.

For the compound `CCN(CC)CC(C)Nc1ccc([N+](=O)[O-])c2sc3ccccc3c(=O)c12` (stereo unspecified), the T/C is, setting by setting: (dose: 6.25 mg/kg/injection, schedule: Q01DX009 (ip), vehicle: saline) 113 % of control; (dose: 12.5 mg/kg/injection, schedule: Q04DX003 (ip), vehicle: saline with Tween-80) 115 % of control; (dose: 25.0 mg/kg/injection, schedule: Q04DX003 (ip), vehicle: saline with Tween-80) 120 % of control; under setting [3], 172 % of control; (dose: 50.0 mg/kg/injection, schedule: Q01DX009 (ip), vehicle: saline) 186 % of control; (dose: 132.0 mg/kg/injection, schedule: Q04DX003 (ip), vehicle: saline with Tween-80) 163 % of control. For the same compound, under “dose: 200.0 mg/kg/injection, schedule: Q04DX003 (ip), vehicle: saline with Tween-80”, the T/C is 154 % of control.

Take `O=C1N[C@@H]([C@H]2CC[C@H](Cl)CN2)C(=O)N[C@H]1[C@H]1CC[C@H](Cl)CN1`: the T/C (dose: 0.25 mg/kg/injection, schedule: Q01DX005 (iv), vehicle: saline) was 118 % of control; the T/C (dose: 0.39 mg/kg/injection, schedule: Q01DX009 (ip), vehicle: water) is 158 % of control and 182 % of control; the T/C (dose: 0.5 mg/kg/injection, schedule: Q01DX005 (iv), vehicle: saline) was 118 % of control; the T/C (dose: 0.78 mg/kg/injection, schedule: Q01DX009 (ip), vehicle: water) was 184 % of control and 214 % of control; the T/C (dose: 1.0 mg/kg/injection, schedule: Q01DX001 (ip), vehicle: saline) is 123 % of control; the T/C (dose: 1.0 mg/kg/injection, schedule: Q01DX005 (ip), vehicle: saline) was 181 % of control. Moreover, the T/C reads like this: (dose: 1.0 mg/kg/injection, schedule: Q01DX005 (iv), vehicle: saline) 120 % of control; (dose: 1.56 mg/kg/injection, schedule: Q01DX009 (ip), vehicle: water) 122 % of control and 223 % of control; (dose: 2.0 mg/kg/injection, schedule: Q01DX001 (ip), vehicle: saline) 123 % of control; (dose: 2.0 mg/kg/injection, schedule: Q01DX005 (ip), vehicle: saline) 227 % of control; (dose: 2.0 mg/kg/injection, schedule: Q01DX005 (iv), vehicle: saline) 157 % of control; (dose: 2.0 mg/kg/injection, schedule: Q01DX005 (oral), vehicle: saline) 180 % of control. For the same compound, the T/C runs as follows: (dose: 4.0 mg/kg/injection, schedule: Q01DX001 (ip), vehicle: saline) 151 % of control; (dose: 4.0 mg/kg/injection, schedule: Q01DX005 (ip), vehicle: saline) 100 % of control; (dose: 4.0 mg/kg/injection, schedule: Q01DX005 (iv), vehicle: saline) 200 % of control; (dose: 4.4 mg/kg/injection, schedule: Q01DX001 (ip), vehicle: saline) 172 % of control and 176 % of control and 177 % of control; (dose: 6.7 mg/kg/injection, schedule: Q01DX001 (ip), vehicle: saline) 172 % of control and 190 % of control and 211 % of control; (dose: 10.0 mg/kg/injection, schedule: Q01DX001 (ip), vehicle: saline) 216 % of control and 220 % of control and 250 % of control. The T/C (dose: 16.0 mg/kg/injection, schedule: Q01DX001 (ip), vehicle: saline) is 209 % of control.

`CCNc1cc(N)[n+](CC)c2n[nH]c(N)c12`: the T/C (dose: 50.0 mg/kg/injection, schedule: Q01DX005 (ip), vehicle: saline) was 112 % of control and the T/C (dose: 100.0 mg/kg/injection, schedule: Q01DX005 (ip), vehicle: saline) was 111 % of control.
